Assay results: US10745487B2, “Method of treating cancer by administering an anti-LGR5 monoclonal antibody” (Bionomics Limited, priority 2016, dated 2020)

Legend:
[1] = test system: LGR5 expression in CRC cell lines; assay: LGR5 expression by flow cytometry in treated CRC cell lines; format: cell-based, human; details: panel DLD1, HCT116, LS174t, LoVo, SW48, SW480, SW620; 1 um, 72 hrs
Description: A panel of CRC cell lines including DLD1, HCT116, LS174t, LoVo, SW48, SW480 and SW620 were treated with a PI3K/mTOR dual inhibitor (NVP) or 2 different cytotoxic agents including SN38 (active metabolite of Irinotecan) or 5FU (5 fluorouracil). Cells were treated with the above agents at 1 um and were harvested after 72 hrs. Cells were then stained with anti-LGR5 Mab conjugated to Alexa Fluor647 and the data were analyzed by flow cytometry using a FACScalibur.

[2] = test system: LGR5 expression in JH109, ASPC1 and PANC1 tumors; assay: QPCR of LGR5 expression in treated pancreatic tumors; format: in vivo, mice; details: standard of care: Gemzar and Abraxane in JH109, Gemzar alone in PANC1 and ASPC1
Description: LGR5 expression in metastatic pancreatic patient derived xenografts was investigated using the quantitative polymerase chain reaction (QPCR). A sample of tumor tissue was flash frozen or added to a cryovial containing RNAlater (Qiagen, CA), and transferred to −70° C. after incubation at 4° C. for several hours. Total RNA was extracted using a Qiagen RNeasy extraction kit (Qiagen, CA), and cDNA was synthesized using a SuperScriptIII kit (Life Technologies, CA) and protocols provided by the manufacturer. Human LGR5 transcript abundance was measured using human specific LGR5 and GAPDH primers and the following thermal condition in the StepOne Thermocycler (Life Technologies, CA): 50° C. (2 min); 90° C. (2 min) and 40 cycles of 90° C. (15 sec) and 60° C. (1 min) and melt curve assessment (from 65° C.-95° C.). LGR5 abundance was quantified using 2^δCt equation.
LGR5 expression was investigated in a series of pancreatic tumors including JH109, ASPC1 and PANC1.

[3] = test system: LGR5 expression in pancreatic cell lines; assay: LGR5 expression by flow cytometry in treated pancreatic cell lines; format: cell-based, human; details: panel AsPc1, HPAFII, PANC1, BxPC3, CFPAC, PANC10.05, Capan2, SW1990
Description: The pancreatic cell lines that were tested include: AsPc1, HPAFII, PANC1, BxPC3, CFPAC, PANC10.05, Capan2 and SW1990.

SMILES: O=c1[nH]cc(F)c(=O)[nH]1 [5FU, 5 fluorouracil]
- LGR5 expression (flow cytometry) [1]: did not induce LGR5 expression in any of these lines

SMILES: CCc1c2c(nc3ccc(O)cc13)-c1cc3c(c(=O)n1C2)COC(=O)[C@]3(O)CC [SN38]
- LGR5 expression (flow cytometry) [1]: promoted LGR5 expression in HCT116, LS174t, SW48, SW480 and especially SW620 cells

SMILES: Nc1ccn([C@@H]2O[C@H](CO)[C@@H](O)C2(F)F)c(=O)n1 [gemcitabine, reference compound]
- LGR5 expression in tumors (QPCR) [2]: induction in LGR5 expression
- LGR5 expression (flow cytometry) [3]: upregulates LGR5 in PANC1

SMILES: CC(=O)O[C@H]1C(=O)[C@@]2(C)[C@H]([C@H](OC(=O)c3ccccc3)[C@]3(O)C[C@H](OC(=O)[C@H](O)[C@@H](NC(=O)c4ccccc4)c4ccccc4)C(C)=C1C3(C)C)[C@]1(OC(C)=O)CO[C@@H]1C[C@@H]2O [taxol]
- LGR5 expression (flow cytometry) [3]: increased LGR5 expression in HPAFII
